Measurements published in patent US8153557B2, “Agriculturally useful compositions” (priority 2006, dated 2012).

How the values were obtained:
[1] = Precipitation of Cloquintocet-mexyl hydrate in emulsified concentrate (EW) of Example One; assay type: physicochemical; details: EW of Table E1: Aromatic 200 15.3, n-butyl lactate 15.3, ATLOX 4914 1.4, Cloquintocet-mexyl 4.2, ATLAS G-5000 2.2, water 61.6 weight percent
Protocol: The Following Items where Mix Together (See Table E1). [table] The Cloquintocet-mexyl was dissolved into a mixture of Aromatic 200 and n-butyl lactate. The emulsifiers were then mixed into the mixture. Finally, water was added and the mixture was turned into a emulsified concentrate (EW) by mechanical stirring. Precipitation of Cloquintocet-mexyl hydrate was not observed.

[2] = Precipitation of Cloquintocet-mexyl hydrate from A200, BL or A200+BL solutions after addition of water (Example Two); assay type: physicochemical; set-up: key to Cloquintocet-mexyl hydrate precipitation: “P” means that Cloquintocet-mexyl hydrate precipitated from the mixture.; “S” means that Cloquintocet-mexyl hydrate did not precipitated from the mixture; details: about 10 weight percent water added, 4° C.
Protocol: CQC was dissolved into A200, BL, or a mixture of A200+BL. Thereafter, about 10 weight percent water was added to each sample based on the weight of the sample (A200+BL+CQC). Each sample was prepared at 4° C.

Precipitation of Cloquintocet-mexyl hydrate [1]: not observed
CQC content kept in solution when mixed with water ([2]; 50/50 mixture of A200 and BL): up to 14 weight percent
CQC content at which Cloquintocet-mexyl hydrate is kept in solution when mixed with water ([2]; A200(100%)): less than 7 weight percent
CQC content at which Cloquintocet-mexyl hydrate is kept in solution when mixed with water ([2]; BL(100%)): less than 7 weight percent
Cloquintocet-mexyl hydrate precipitation ([2]; CQC 3 wt %, BL 100%): S
Cloquintocet-mexyl hydrate precipitation ([2]; CQC 4 wt %, A200 100%): S
Cloquintocet-mexyl hydrate precipitation ([2]; CQC 5 wt %, BL 100%): S
Cloquintocet-mexyl hydrate precipitation ([2]; CQC 6 wt %, A200 100%): S
Cloquintocet-mexyl hydrate precipitation ([2]; CQC 7 wt %, BL 100%): P
Cloquintocet-mexyl hydrate precipitation ([2]; CQC 8 wt %, A200 100%): P
Cloquintocet-mexyl hydrate precipitation ([2]; CQC 9 wt %, BL 100%): P
Cloquintocet-mexyl hydrate precipitation ([2]; CQC 10 wt %, A200 100%): P
Cloquintocet-mexyl hydrate precipitation ([2]; CQC 11 wt %, BL 100%): P
Cloquintocet-mexyl hydrate precipitation ([2]; CQC 12 wt %, A200 (12%) + BL (88%)): P
Cloquintocet-mexyl hydrate precipitation ([2]; CQC 12 wt %, A200 (50%) + BL (50%)): S
Cloquintocet-mexyl hydrate precipitation ([2]; CQC 12 wt %, A200 (88%) + BL (12%)): P
Cloquintocet-mexyl hydrate precipitation ([2]; CQC 13 wt %, BL 100%): P
Cloquintocet-mexyl hydrate precipitation ([2]; CQC 14 wt %, A200 (12%) + BL (88%)): P
Cloquintocet-mexyl hydrate precipitation ([2]; CQC 14 wt %, A200 (50%) + BL (50%)): S
Cloquintocet-mexyl hydrate precipitation ([2]; CQC 14 wt %, A200 (88%) + BL (12%)): P
Cloquintocet-mexyl hydrate precipitation ([2]; CQC 15.5 wt %, A200 100%): P
Cloquintocet-mexyl hydrate precipitation ([2]; CQC 15.5 wt %, A200 (12%) + BL (88%)): P
Cloquintocet-mexyl hydrate precipitation ([2]; CQC 15.5 wt %, A200 (50%) + BL (50%)): P
Cloquintocet-mexyl hydrate precipitation ([2]; CQC 15.5 wt %, A200 (88%) + BL (12%)): P
Cloquintocet-mexyl hydrate precipitation ([2]; CQC 15.5 wt %, BL 100%): P
Compound: CCCCCC(C)OC(=O)COc1ccc(Cl)c2cccnc12 (stereo not shown) [CQC, Cloquintocet-mexyl]
